≈ marks a conversion by molar mass, not a printed value. Like-named read-outs stand apart in the source and are kept apart here.
Legend:
Type in all cases: cell-based
[1] = tested on: Endothelial cell line HUVEC; assay: Inhibitory activity on cells, CellTiter-Glo viability, HUVEC; settings: Homo sapiens, 72 hours treatment
Method: (§1) HUVEC (purchased from Allcells Biological Technology (Shanghai) Co., Ltd.); UM-UC-3 (ATCC); LNCaP (ATCC); RM-1 (purchased from Nanjing Cobioer Biosciences Co., Ltd.) (1) On the first day, the cells were seeded in a 96-well plate, and the previous medium was poured off. 5 mL of DPBS was added to wash the cells, and then removed by a pipette and discarded. Then, 1 mL of trypsin (0.25%) was added, and the plate was placed in a cell culture incubator at 37 °C, 5% CO2 for digestion, and taken out after about 2 to 5 minutes. New corresponding medium was added, and pipetted to resuspend the cells evenly, and the cells were then counted with an automated cell counter. Regarding HUVEC, the medium used was endothelial cell complete medium; regarding UM-UC-3, the medium used was 89 v % EMEM+10 v % fetal bovine serum+1 v % penicillin-streptomycin double anti-body; regarding LNcaP, the medium used was 89 v % RPM11640+10 v % fetal bovine serum+1 v % penicillin-streptomycin double anti-body; and regarding RM1, the medium used was 89 v % DMEM+10 v % fetal bovine serum+1 v % penicillin-streptomycin double anti-body. (2) HUVEC cells were seeded in columns 1 to 11 of a 96-well plate (Corning, Cat. No. 3610) at a density of 2000 cells per well in 100 μL of medium, and the medium free of cell was added to the wells of column 12. The other three types of cells were also seeded, wherein UM-UC-3 and RM-1 cells were seeded at a density of 3000 cells per well, and LNCap cells were seeded at a density of 5000 cells per well. Then, the plate was placed in an incubator at 37° C., 5% CO2 for 24 hours. (3) On the second day, the compounds of the present invention and the reference drug nitroxoline (obtained according to the preparation method disclosed in the prior art) were diluted in gradient (2.5 folds, started at 100 μmol) to obtain 8 dose points (there were a total of 8 columns of wells; the first column of wells had the highest concentration, the concentration decreased in turn, and the last column of wells had the lowest concentration). 10 μL of the compound diluted in gradient was added to the 100 μL of cells in column 1 to column 10 with an 8-channel pipette. 10 μL of the corresponding medium containing 0.33 v % DMSO was added to column 11 and column 12. The plate was incubated in an incubator at 37° C., 5% CO2 for 72 hours (note: column 11 was used as MAX well with cells and no compounds; and column 12 was used as MIN well with no cells and no compounds). (4) After treating with the compounds of the present invention for 72 hours, the cell viability detection reagents in the above CellTiter-Glo® assay kit were added to the 96-well plate at 50 μL per well according to the instructions. The plate was shaken on a shaker in the dark for 5 to 10 minutes, and then the cell activity was determined by a multifunctional microplate reader. Finally, the growth inhibition of the compounds of the present invention on the cells was plotted by XLFIT 5.3 software, and the IC50 values of the compounds of the present invention were calculated.

[2] = tested on: Bladder cancer cell line UM-UC-3; assay: Inhibitory activity on cancer cells, CellTiter-Glo viability, UM-UC-3; settings: Homo sapiens, UMUC3, 72 hours treatment
Method: as §1

[3] = tested on: Prostate cancer cell line LNcaP; assay: Inhibitory activity on cancer cells, CellTiter-Glo viability, LNcaP; settings: Homo sapiens, 72 hours treatment
Method: as §1

[4] = tested on: Escherichia coli (carbapenem-resistant clinical isolate; ATCC25922); assay: MIC by micro broth dilution (CLSI), Escherichia coli; settings: Escherichia coli
Source text: (§2) The test bacteria were one strain of clinically isolated carbapenem-resistant Escherichia coli, two strains of carbapenem-resistant Acinetobacter baumannii, two strains of methicillin-resistant Staphylococcus aureus, two strains of sensitive Staphylococcus aureus, and 7 strains of Klebsiella pneumoniae. Duplicate strains isolated from the same patient were eliminated. There were also […] quality control strains Escherichia coli ATCC25922, Acinetobacter baumannii ATCC19606, Staphylococcus aureus ATCC29213, Klebsiella pneumoniae ATCC BAA-1705, ATCC 43816, ATCC BAA-2472, ATCC-BAA-1898, ATCC-BAA-1899, NCTC 13440 and ATCC-BAA-2470. There were 24 strains in total.
(§3) According to the recommendations of relevant documents of the American Clinical and Laboratory Standards Institute (CLSI), the micro broth dilution method was used to determine the MIC of the compounds of the present invention against clinically isolated strains. • 3.1 Formulation of antibacterial drug: All the compounds of the present invention were dissolved in DMSO. The drug concentration range was 128 mg/L to 0.06 mg/L. • 3.2 Culture medium: The drug susceptibility test used cation adjusted Mueller-Hinton broth (CAMHB). • 3.3 Amount of inoculum: The test bacteria cultured overnight were adjusted to 0.5 McFarland turbidity by the direct colony suspension method, and diluted 100 folds, the final inoculum amount was 10^5 CFU/mL. • 3.4 Culture conditions: The test bacteria were cultured at 35±2° C. for 20 hours in air.
(§4) The drug susceptibility test results were interpretated by reference to CLSI 2019 M100 29th edition criteria.
(§5) The quality control strains of the drug susceptibility test were Escherichia coli ATCC 25922, Acinetobacter baumannii ATCC 19606, Staphylococcus aureus ATCC 29213, Klebsiella pneumoniae ATCC BAA-1705, ATCC 43816, ATCC BAA-2472, ATCC-BAA-1898, ATCC-BAA-1899, NCTC 13440 and ATCC-BAA-2470.
(§6) The results of drug susceptibility test were statistically analyzed by WHONET software (version 5.6).

[5] = tested on: Acinetobacter baumannii (carbapenem-resistant clinical isolates; ATCC19606); assay: MIC by micro broth dilution (CLSI), Acinetobacter baumannii; settings: Acinetobacter baumannii; for MIC50 / MIC90: ATCC19606
Source text: as §2, §3, §4, §5, §6

[6] = tested on: Staphylococcus aureus (methicillin-resistant and sensitive clinical isolates; ATCC29213); assay: MIC by micro broth dilution (CLSI), Staphylococcus aureus
Source text: as §2, §3, §4, §5, §6

[7] = Clinical strain, read-out: MIC50
[8] = Clinical strain, read-out: MIC90
[9] = clinical strains, micro broth dilution, CAMHB, 35±2° C., 20 hours, read-out: MIC50 Escherichia coli Clinical strain
[10] = clinical strains, micro broth dilution, CAMHB, 35±2° C., 20 hours, read-out: MIC90 Escherichia coli Clinical strain
[11] = standard strain ATCC25922, micro broth dilution, CAMHB, 35±2° C., 20 hours, read-out: MIC Escherichia coli Standard strain ATCC25922
[12] = clinical strains, micro broth dilution, CAMHB, 35±2° C., 20 hours, read-out: MIC50 Acinetobacter baumannii Clinical strain
[13] = clinical strains, micro broth dilution, CAMHB, 35±2° C., 20 hours, read-out: MIC90 Acinetobacter baumannii Clinical strain
[14] = standard strain ATCC19606, micro broth dilution, CAMHB, 35±2° C., 20 hours, read-out: MIC Acinetobacter baumannii Standard strain ATCC19606
[15] = clinical strains, micro broth dilution, CAMHB, 35±2° C., 20 hours, read-out: MIC50 Staphylococcus aureus Clinical strain
[16] = clinical strains, micro broth dilution, CAMHB, 35±2° C., 20 hours, read-out: MIC90 Staphylococcus aureus Clinical strain
[17] = standard strain ATCC29213, micro broth dilution, CAMHB, 35±2° C., 20 hours, read-out: MIC Staphylococcus aureus Standard strain ATCC29213

Row | MIC50 [4, 9] [µg/mL] | MIC90 [4, 10] [µg/mL] | MIC [4, 11] [µg/mL] | MIC50 [5, 12] [µg/mL] | MIC90 [5, 13] [µg/mL] | MIC [5, 14] [µg/mL] | MIC50 [6, 15] [µg/mL] | MIC90 [6, 16] [µg/mL] | MIC [6, 17] [µg/mL] | SMILES | other results
1 |  |  |  |  |  |  |  |  |  | CN1CCN(c2ccnc3c(O)c([N+](=O)[O-])ccc23)CC1 [Example 18, 4-(4-Methylpiperazinyl)-7-nitroquinolin-8-ol] | IC50 [1]: 64.4 µM; IC50 [2]: 13.2 µM; IC50 [3]: 21.2 µM; MIC50 ([4]; ATCC25922, Clinical strain, read-out: MIC50): 128 µg/mL (≈ 444 µM); MIC90 ([4]; ATCC25922, Clinical strain, read-out: MIC90): 128 µg/mL (≈ 444 µM); MIC ([4]; Standard strain ATCC25922, read-out: MIC): 128 µg/mL (≈ 444 µM); MIC50 [5, 7]: 128 µg/mL (≈ 444 µM); MIC90 [5, 8]: 128 µg/mL (≈ 444 µM); MIC ([5]; Standard strain ATCC19606, read-out: MIC): 128 µg/mL (≈ 444 µM); MIC50 [6, 7]: 128 µg/mL (≈ 444 µM); MIC90 [6, 8]: 128 µg/mL (≈ 444 µM); MIC ([6]; Standard strain ATCC29213, read-out: MIC): 128 µg/mL (≈ 444 µM)
2 |  |  |  |  |  |  |  |  |  | O=[N+]([O-])c1ccc2c(NC3COC3)ccnc2c1O [Example 19, 7-Nitro-4-(3-oxetanylamino)quinolin-8-ol] | IC50 [1]: > 100 µM; IC50 [2]: > 100 µM; IC50 [3]: > 100 µM
3 | 128 (≈ 476 µM) | 128 (≈ 476 µM) | 16 (≈ 59.5 µM) | 16 (≈ 59.5 µM) | 32 (≈ 119 µM) | 8 (≈ 29.7 µM) | 4 (≈ 14.9 µM) | 16 (≈ 59.5 µM) | 8 (≈ 29.7 µM) | O=[N+]([O-])c1cc(Br)c2cccnc2c1O [Example 121, 5-bromo-7-nitroquinolin-8-ol] | 
4 | 64 (≈ 307 µM) | 64 (≈ 307 µM) | 64 (≈ 307 µM) | 64 (≈ 307 µM) | 64 (≈ 307 µM) | 64 (≈ 307 µM) | 64 (≈ 307 µM) | 64 (≈ 307 µM) | 128 (≈ 615 µM) | O=[N+]([O-])c1c(F)cc2cccnc2c1O [Example 122, 6-fluoro-7-nitroquinolin-8-ol] | 
5 | 16 (≈ 66 µM) | 32 (≈ 132 µM) | 8 (≈ 33 µM) | 4 (≈ 16.5 µM) | 8 (≈ 33 µM) | 4 (≈ 16.5 µM) | 2 (≈ 8.24 µM) | 4 (≈ 16.5 µM) | 4 (≈ 16.5 µM) | O=[N+]([O-])c1c(Cl)c(F)c2cccnc2c1O [Example 123, 6-chloro-5-fluoro-7-nitroquinolin-8-ol] | 
6 | 16 (≈ 55.7 µM) | 64 (≈ 223 µM) | 8 (≈ 27.9 µM) | 4 (≈ 13.9 µM) | 8 (≈ 27.9 µM) | 8 (≈ 27.9 µM) | 4 (≈ 13.9 µM) | 4 (≈ 13.9 µM) | 4 (≈ 13.9 µM) | O=[N+]([O-])c1c(Br)c(F)c2cccnc2c1O [Example 124, 6-bromo-5-fluoro-7-nitroquinolin-8-ol] | 
7 | 16 (≈ 70.8 µM) | 16 (≈ 70.8 µM) | 8 (≈ 35.4 µM) | 8 (≈ 35.4 µM) | 16 (≈ 70.8 µM) | 8 (≈ 35.4 µM) | 8 (≈ 35.4 µM) | 8 (≈ 35.4 µM) | 8 (≈ 35.4 µM) | O=[N+]([O-])c1c(F)c(F)c2cccnc2c1O [Example 125, 5,6-difluoro-7-nitroquinolin-8-ol] | 

Reference: US20240246916A1, “7-NITRO-8-HYDROXYQUINOLINE DERIVATIVES, PREPARATION METHOD THEREFORE AND MEDICAL USE THEREOF” (Jiangsu Yahong Meditech Co., Ltd., priority 2021, published 2024)
